What was measured:
KRas G12C = target: T1, KRas G12C (Homo sapiens, UniProt P01116, G12C); assay: KRas binding assay, TR-FRET displacement of Cy5 labelled tracer; details: 60-minute incubation at room temperature, 1% DMSO, pH 7.5
T1 construct: Biotinylated KRas (corresponding to amino acids 1-169, produced at Accelegan Inc.); biotin (biotinylated); purchased Accelegan Inc
How it was run: (§1)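 IC50 came from fitting POC values with a four-parameter equation. Signal was read after one hour at room temperature. Protein was biotin-tagged KRas 1-169 captured by terbium streptavidin, with compound in 1% DMSO (final).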

KRas G12S = target: T2, KRas G12S (Homo sapiens, UniProt P01116, G12S); assay: as above; details: 60-minute incubation at room temperature, 1% DMSO, pH 7.5
T2 construct: Biotinylated KRas (corresponding to amino acids 1-169, produced at Accelegan Inc.); biotin (biotinylated); purchased Accelegan Inc
How it was run: as §1

KRas WT = target: T3, KRas WT (Homo sapiens, UniProt P01116); assay: as above; details: 60-minute incubation at room temperature, 1% DMSO, pH 7.5
T3 construct: Biotinylated KRas (corresponding to amino acids 1-169, produced at Accelegan Inc.); biotin (biotinylated); purchased Accelegan Inc
How it was run: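 Truncated KRas (1-169), biotinylated, Tb-streptavidin donor; one-hour room-temperature incubation; IC50 by four-parameter curve fitting.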

[1] = target: T4, KRas-mediated phosphorylation of ERK in MKN1 cells (Homo sapiens, UniProt P01116); assay: Inhibition of KRas-mediated phosphorylation of ERK (HTRF), MKN1 cells; type: cell-based; details: MKN1 cells (KRas WT); HTRF pERK; 3 h incubation
T4 construct: pERK HTRF read-out
Experimental: Inhibition of KRas Phosphorylation of ERK (HTRF) by Exemplary Compounds of Formula (Ia) or (Ib)
Cisbio HTRF Advanced pERK Assay Catalog #64AERPEH • Cells: MKN1, PSN1 • Procedure: • 1. Day 1: Seed 6,000 cells/well −25 μl/well in 384-well white solid bottom plate; RPM1_10% FBS. Incubate overnight at 37 °C/5% CO2. • 2.

[2] = target: T5, KRas-mediated phosphorylation of ERK in A549 cells (Homo sapiens, UniProt P01116, G12S); assay: Inhibition of KRas-mediated phosphorylation of ERK (HTRF), A549 cells; type: cell-based; details: HTRF pERK, 3 h incubation
T5 construct: pERK HTRF read-out

[3] = target: T6, KRas-mediated phosphorylation of ERK in H358 cells (Homo sapiens, UniProt P01116, G12C); assay: Inhibition of KRas-mediated phosphorylation of ERK (HTRF), H358 cells; type: cell-based; details: HTRF pERK, 3 h incubation
T6 construct: pERK HTRF read-out
T6 sequence (P01116 1-188 isoform P01116-2 G12C): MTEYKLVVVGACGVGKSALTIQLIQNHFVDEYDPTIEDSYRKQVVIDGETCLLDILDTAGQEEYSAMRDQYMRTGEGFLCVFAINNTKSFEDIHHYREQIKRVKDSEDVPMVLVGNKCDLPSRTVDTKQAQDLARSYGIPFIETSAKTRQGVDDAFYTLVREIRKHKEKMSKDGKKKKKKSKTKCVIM

T2 sequence (P01116 1-169 isoform P01116-2 G12S): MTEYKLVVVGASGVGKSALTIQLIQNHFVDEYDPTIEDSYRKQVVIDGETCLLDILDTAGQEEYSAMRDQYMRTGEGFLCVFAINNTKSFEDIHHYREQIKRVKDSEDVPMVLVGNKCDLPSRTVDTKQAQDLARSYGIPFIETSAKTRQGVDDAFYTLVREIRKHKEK
T5 sequence (P01116 1-188 isoform P01116-2 G12S): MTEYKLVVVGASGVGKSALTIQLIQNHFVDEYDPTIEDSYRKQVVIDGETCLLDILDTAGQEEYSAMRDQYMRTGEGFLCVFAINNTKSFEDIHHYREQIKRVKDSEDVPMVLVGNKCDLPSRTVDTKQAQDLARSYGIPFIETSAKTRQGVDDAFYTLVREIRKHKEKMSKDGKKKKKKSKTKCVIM
T1 sequence (P01116 1-169 isoform P01116-2 G12C): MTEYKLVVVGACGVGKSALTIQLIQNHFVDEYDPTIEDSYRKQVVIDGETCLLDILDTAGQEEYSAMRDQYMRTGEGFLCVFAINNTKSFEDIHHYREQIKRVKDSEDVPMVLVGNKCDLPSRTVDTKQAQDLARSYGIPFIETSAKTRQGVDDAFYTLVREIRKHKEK
T3 sequence (P01116 1-169 isoform P01116-2): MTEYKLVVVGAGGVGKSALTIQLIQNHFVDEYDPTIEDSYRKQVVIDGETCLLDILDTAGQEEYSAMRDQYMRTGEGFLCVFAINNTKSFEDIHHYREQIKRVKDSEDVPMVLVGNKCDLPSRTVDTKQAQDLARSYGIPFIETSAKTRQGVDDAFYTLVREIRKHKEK
T4 sequence (P01116 1-188 isoform P01116-2): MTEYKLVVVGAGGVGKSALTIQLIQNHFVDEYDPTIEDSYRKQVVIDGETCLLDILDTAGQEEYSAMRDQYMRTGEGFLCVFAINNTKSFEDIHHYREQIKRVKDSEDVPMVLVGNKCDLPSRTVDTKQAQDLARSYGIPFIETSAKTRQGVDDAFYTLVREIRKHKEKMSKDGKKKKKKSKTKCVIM

Structure (SMILES)	IC50 (KRas G12C) [nM]	IC50 (KRas G12S) [nM]	IC50 (KRas WT) [nM]	IC50 [1] [nM]	IC50 [2] [nM]	IC50 [3] [nM]
CCc1c(F)ccc2cc(O)cc(-c3ncc4c(N5C[C@H]6C[C@H](C(=O)n7ccc(C)n7)[C@H]6C5)nc(OC[C@@]56CCCN5C[C@H](F)C6)nc4c3F)c12 [Example 161, ((1S,5S,6S)-3-(7-(8-ethyl-7-fluoro-3-hydroxynaphthalen-1-yl)-8-fluoro-2-(((2R,7aS)-2-fluorotetrahydro-1H-pyrrolizin-7a(5H)-yl)methoxy)pyrido[4,3-d]pyrimidin-4-yl)-3-azabicyclo[3.2.0]heptan-6-yl)(3-methyl-1H-pyrazol-1-yl)methanone]	86	185	282	7280	717	> 10000
CCc1c(F)ccc2cc(O)cc(-c3ncc4c(N5C[C@@H]6C[C@@H](C(=O)n7ccc(C)n7)[C@@H]6C5)nc(OC[C@@]56CCCN5C[C@H](F)C6)nc4c3F)c12 [Example 162, ((1R,5R,6R)-3-(7-(8-ethyl-7-fluoro-3-hydroxynaphthalen-1-yl)-8-fluoro-2-(((2R,7aS)-2-fluorotetrahydro-1H-pyrrolizin-7a(5H)-yl)methoxy)pyrido[4,3-d]pyrimidin-4-yl)-3-azabicyclo[3.2.0]heptan-6-yl)(3-methyl-1H-pyrazol-1-yl)methanone]	673	491	1050	> 10000	6480	> 10000
CCc1c(F)ccc2cc(O)cc(-c3ncc4c(N5CCCC(C(=O)n6ccc(C)n6)CC5)nc(OCC5(CN(C)C)CC5)nc4c3F)c12 (stereo not drawn) [Example 167, (1-(2-((1-((dimethylamino)methyl)cyclopropyl)methoxy)-7-(8-ethyl-7-fluoro-3-hydroxynaphthalen-1-yl)-8-fluoropyrido[4,3-d]pyrimidin-4-yl)azepan-4-yl)(3-methyl-1H-pyrazol-1-yl)methanone]	94	29	528	3050	326	5100
Cc1ccn(C(=O)C2CC3CN(c4nc(OC[C@@]56CCCN5C[C@H](F)C6)nc5c(F)c(-c6ccc(F)c7sc(N)c(C#N)c67)c(Cl)cc45)CC32)n1 (stereo partly drawn) [Example 178, 2-amino-4-(6-chloro-8-fluoro-2-(((2R,7aS)-2-fluorotetrahydro-1H-pyrrolizin-7a(5H)-yl)methoxy)-4-(6-(3-methyl-1H-pyrazole-1-carbonyl)-3-azabicyclo[3.2.0]heptan-3-yl)quinazolin-7-yl)-7-fluorobenzo[b]thiophene-3-carbonitrile]	13	15	44	356	108	226
Cc1ccn(C(=O)C2C[C@@H]3CN(c4nc(OC[C@@]56CCCN5C[C@H](F)C6)nc5c(F)c(-c6ccc(F)c7sc(N)c(C#N)c67)c(Cl)cc45)C[C@@H]3C2)n1 (stereo partly drawn) [Example 180, 2-amino-4-(6-chloro-8-fluoro-2-(((2R,7aS)-2-fluorotetrahydro-1H-pyrrolizin-7a(5H)-yl)methoxy)-4-((3aR,6aS)-5-(3-methyl-1H-pyrazole-1-carbonyl)hexahydrocyclopenta[c]pyrrol-2 (1H)-yl)quinazolin-7-yl)-7-fluorobenzo[b]thiophene-3-carbonitrile]	26	4	67	441	27	232

These reach a lower IC50 (KRas G12C). Values come first.

IC50 (KRas G12C) [nM]	IC50 (KRas G12S) [nM]	IC50 (KRas WT) [nM]	IC50 [1] [nM]	IC50 [2] [nM]	IC50 [3] [nM]	Structure (SMILES)
10	9	17	111	15	71	Cc1ccn(C(=O)[C@@H]2C[C@H]2CNc2nc(OC[C@@]34CCCN3C[C@H](F)C4)nc3c(F)c(-c4ccc(F)c5sc(N)c(C#N)c45)c(Cl)cc23)n1 [Example 181, 2-amino-4-(6-chloro-8-fluoro-2-(((2R,7aS)-2-fluorotetrahydro-1H-pyrrolizin-7a(5H)-yl)methoxy)-4-((((trans)-2-(3-methyl-1H-pyrazole-1-carbonyl)cyclopropyl)methyl)amino)quinazolin-7-yl)-7-fluorobenzo[b]thiophene-3-carbonitrile]
9	8	16	177	6	11	Cc1ccn(C(=O)C2CCCN(c3nc(OC[C@@]45CCCN4C/C(=C\F)C5)nc4c(F)c(-c5ccc(F)c6sc(N)c(C#N)c56)c(Cl)cc34)CC2)n1 (stereo partly drawn) [Example 175, 2-amino-4-(6-chloro-8-fluoro-2-(((S,Z)-2-(fluoromethylene)tetrahydro-1H-pyrrolizin-7a(5H)-yl)methoxy)-4-(4-(3-methyl-1H-pyrazole-1-carbonyl)azepan-1-yl)quinazolin-7-yl)-7-fluorobenzo[b]thiophene-3-carbonitrile]
5	8	103	2210	50	999	CCc1c(F)ccc2cc(O)cc(-c3ncc4c(N(CC)CCCC(=O)n5ccc(C)n5)nc(OC[C@@]56CCCN5C[C@H](F)C6)nc4c3F)c12 [Example 164, 4-(ethyl(7-(8-ethyl-7-fluoro-3-hydroxynaphthalen-1-yl)-8-fluoro-2-(((2R,7aS)-2-fluorotetrahydro-1H-pyrrolizin-7a(5H)-yl)methoxy)pyrido[4,3-d]pyrimidin-4-yl)amino)-1-(3-methyl-1H-pyrazol-1-yl) butan-1-one]
3	5	12	250	388	295	Cc1ccn(C(=O)CCN(C)c2nc(OC[C@@]34CCCN3C[C@H](F)C4)nc3c(F)c(-c4ccc(F)c5sc(N)c(C#N)c45)c(Cl)cc23)n1 [Example 176, 2-amino-4-(6-chloro-8-fluoro-2-(((2R,7aS)-2-fluorotetrahydro-1H-pyrrolizin-7a(5H)-yl)methoxy)-4-(methyl(3-(3-methyl-1H-pyrazol-1-yl)-3-oxopropyl)amino)quinazolin-7-yl)-7-fluorobenzo[b]thiophene-3-carbonitrile]
2	4	52	226	62	450	CCc1c(F)ccc2cc(O)cc(-c3ncc4c(N(CCCC(=O)n5ccc(C)n5)C5CC5)nc(OC[C@@]56CCCN5C[C@H](F)C6)nc4c3F)c12 [Example 165, 4-(cyclopropyl(7-(8-ethyl-7-fluoro-3-hydroxynaphthalen-1-yl)-8-fluoro-2-(((2R,7aS)-2-fluorotetrahydro-1H-pyrrolizin-7a(5H)-yl)methoxy)pyrido[4,3-d]pyrimidin-4-yl)amino)-1-(3-methyl-1H-pyrazol-1-yl) butan-1-one]
2	4	9	1250	227	1110	Cc1ccn(C(=O)CCNc2nc(OC[C@@]34CCCN3C[C@H](F)C4)nc3c(F)c(-c4ccc(F)c5sc(N)c(C#N)c45)c(Cl)cc23)n1 [Example 177, 2-amino-4-(6-chloro-8-fluoro-2-(((2R,7aS)-2-fluorotetrahydro-1H-pyrrolizin-7a(5H)-yl)methoxy)-4-((3-(3-methyl-1H-pyrazol-1-yl)-3-oxopropyl)amino)quinazolin-7-yl)-7-fluorobenzo[b]thiophene-3-carbonitrile]
